Test results reported in ChEMBL document CHEMBL4418500, “Methods of preventing or treating atherosclerosis with inhibitors of specific isoenzymes of human neuraminidase” (2018).
≈ marks a conversion by molar mass, not a printed value. Calls of active or inactive are those of the source. The calls are words filed in the database; no cut-off is given here.

Legend:
[1] = biological target: T1, Sialidase-3 (Homo sapiens) (UniProt Q9UQ49); details: 1 mM
T1 sequence (whole entry): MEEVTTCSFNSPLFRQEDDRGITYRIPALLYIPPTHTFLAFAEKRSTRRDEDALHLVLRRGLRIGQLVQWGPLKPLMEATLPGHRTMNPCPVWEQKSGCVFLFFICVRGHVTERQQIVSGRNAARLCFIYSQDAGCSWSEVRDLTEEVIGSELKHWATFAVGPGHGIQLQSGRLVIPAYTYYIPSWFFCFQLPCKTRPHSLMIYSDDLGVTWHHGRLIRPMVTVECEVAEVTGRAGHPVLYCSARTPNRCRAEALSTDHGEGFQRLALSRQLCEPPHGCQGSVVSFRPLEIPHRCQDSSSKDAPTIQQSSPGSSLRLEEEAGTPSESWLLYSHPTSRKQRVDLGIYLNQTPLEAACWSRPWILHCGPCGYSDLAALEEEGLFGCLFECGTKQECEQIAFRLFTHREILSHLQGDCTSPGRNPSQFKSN

Mus musculus [2] = experiment: Reduction in size of fatty streaks in aortic root of normal diet fed 12 week old ApoE KO mouse at 1 mg/kg, ip treated for 4 weeks (once every 2 days for first 2 weeks and then every day for third and the fourth weeks) by Oil Red O staining based assay relative to control; assay type: functional
[3] = Toxicity in normal diet fed 12 week old ApoE KO mouse assessed as induction of cytoplasmic vacuolization at 1 mg/kg, ip treated for 4 weeks (once every 2 days for first 2 weeks and then every day for third and the fourth weeks); assay type: organism-based; details: in vivo
Mus musculus [4] = experiment: Inhibition of neuraminidase-3 activity in spleen of wild type C57BI6 mouse at 30 mg/kg, ip dosed for 2 consecutive days and measured 24 hrs post last dose by X-Neu5Ac substrate based histochemical assay relative to control; assay type: functional
[5] = Solubility in water; assay type: physicochemical
Mus musculus [6] = experiment: Inhibition of neuraminidase-4 activity in spleen of wild type C57BI6 mouse at 30 mg/kg, ip dosed for 2 consecutive days and measured 17 hrs post last dose by X-Neu5Ac substrate based histochemical assay relative to control; assay type: functional
[7] = Toxicity in normal diet fed 12 week old ApoE KO mouse assessed as effect on behavior at 1 mg/kg, ip treated for 4 weeks (once every 2 days for first 2 weeks and then every day for third and the fourth weeks); assay type: organism-based; details: in vivo
[8] = Toxicity in normal diet fed 12 week old ApoE KO mouse assessed as effect on body weight at 1 mg/kg, ip treated for 4 weeks (once every 2 days for first 2 weeks and then every day for third and the fourth weeks); assay type: organism-based; details: in vivo
[9] = Toxicity in normal diet fed 12 week old ApoE KO mouse assessed as induction of leukocyte infiltration at 1 mg/kg, ip treated for 4 weeks (once every 2 days for first 2 weeks and then every day for third and the fourth weeks); assay type: organism-based; details: in vivo
[10] = Toxicity in normal diet fed 12 week old ApoE KO mouse assessed as induction of bleeding at 1 mg/kg, ip treated for 4 weeks (once every 2 days for first 2 weeks and then every day for third and the fourth weeks); assay type: organism-based; details: in vivo
Mus musculus [11] = experiment: Reduction in size of fatty streaks in aortic root of normal diet fed 16 week old ApoE KO mouse at 30 mg/kg, ip treated for 2 weeks (once every 2 days for first week and then every day for second week) by Oil Red O staining based assay relative to control; assay type: functional; design: scale not given: the % may be the effect or the level left
Mus musculus [12] = species on record: Mus musculus; experiment: Effect on lipid composition in ApoE KO mouse assessed as effect on triglycerides level; assay type: functional, organism-based
[13] = Toxicity in normal diet fed 12 week old ApoE KO mouse assessed as effect on body weight at 30 mg/kg, ip treated for 4 weeks (once every 2 days for first 2 weeks and then every day for third and the fourth weeks); assay type: organism-based; details: in vivo
Mus musculus [14] = experiment: Reduction in size of fatty streaks in aortic root of normal diet fed 12 week old ApoE KO mouse at 30 mg/kg, ip treated for 4 weeks (once every 2 days for first 2 weeks and then every day for third and the fourth weeks) by Oil Red O staining based assay relative to control; assay type: functional; design: scale not given: the % may be the effect or the level left
[15] = Toxicity in normal diet fed 12 week old ApoE KO mouse assessed as induction of leukocyte infiltration at 30 mg/kg, ip treated for 4 weeks (once every 2 days for first 2 weeks and then every day for third and the fourth weeks); assay type: organism-based; details: in vivo
Mus musculus [16] = experiment: Inhibition of neuraminidase-1 activity in normal diet fed ApoE KO mouse at 30 mg/kg, ip treated for 2 weeks (once every 2 days for first week and then every day for second week) by X-Neu5Ac substrate based histochemical assay relative to control; assay type: functional
[17] = Toxicity in normal diet fed 16 week old ApoE KO mouse assessed as induction of bleeding at 30 mg/kg, ip treated for 2 weeks (once every 2 days for first week and then every day for second week) by Oil Red O staining based assay relative to control; assay type: organism-based; details: in vivo
Mus musculus [18] = experiment: Inhibition of neuraminidase-1 activity in kidney of wild type C57BI6 mouse at 30 mg/kg, ip dosed for 2 consecutive days and measured 17 hrs post last dose by X-Neu5Ac substrate based histochemical assay relative to control; assay type: functional
[19] = Toxicity in normal diet fed 12 week old ApoE KO mouse assessed as induction of bleeding at 30 mg/kg, ip treated for 4 weeks (once every 2 days for first 2 weeks and then every day for third and the fourth weeks); assay type: organism-based; details: in vivo
[20] = Toxicity in normal diet fed 12 week old ApoE KO mouse assessed as effect on behavior at 30 mg/kg, ip treated for 4 weeks (once every 2 days for first 2 weeks and then every day for third and the fourth weeks); assay type: organism-based; details: in vivo
[21] = Toxicity in normal diet fed 16 week old ApoE KO mouse assessed as induction of cytoplasmic vacuolation at 30 mg/kg, ip treated for 2 weeks (once every 2 days for first week and then every day for second week) by Oil Red O staining based assay relative to control; assay type: organism-based; details: in vivo
Mus musculus [22] = species on record: Mus musculus; experiment: Effect on lipid composition in ApoE KO mouse assessed as increase in LDL cholesterol relative to control; assay type: functional
[23] = Toxicity in normal diet fed 16 week old ApoE KO mouse assessed as effect on behavior at 30 mg/kg, ip treated for 2 weeks (once every 2 days for first week and then every day for second week) by Oil Red O staining based assay relative to control; assay type: organism-based; details: in vivo
[24] = Toxicity in normal diet fed 16 week old ApoE KO mouse assessed as effect on body weight at 30 mg/kg, ip treated for 2 weeks (once every 2 days for first week and then every day for second week) by Oil Red O staining based assay relative to control; assay type: organism-based; details: in vivo
Mus musculus [25] = species on record: Mus musculus; experiment: Effect on lipid composition in ApoE KO mouse assessed as effect on total cholesterol level; assay type: functional, organism-based
Mus musculus [26] = species on record: Mus musculus; experiment: Effect on lipid composition in ApoE KO mouse assessed as effect on HDL-cholesterol level; assay type: functional, organism-based
[27] = Toxicity in normal diet fed 16 week old ApoE KO mouse assessed as induction of leukocyte infiltration at 30 mg/kg, ip treated for 2 weeks (once every 2 days for first week and then every day for second week) by Oil Red O staining based assay relative to control; assay type: organism-based; details: in vivo
[28] = Toxicity in normal diet fed 12 week old ApoE KO mouse assessed as induction of cytoplasmic vacuolization at 30 mg/kg, ip treated for 4 weeks (once every 2 days for first 2 weeks and then every day for third and the fourth weeks); assay type: organism-based; details: in vivo

For `CC(=O)N[C@H]1[C@H]([C@H](O)[C@H](O)CO)OC(C(=O)O)=C[C@@H]1O`, the inhibition [1] was “Active”.
For `CC(=O)N[C@H]1[C@H]([C@H](O)[C@H](O)Cn2cc(-c3ccc(-c4ccccc4)cc3)nn2)OC(C(=O)O)=C[C@@H]1O`, the Activity (Mus musculus [2]) was “Active”.
In the case of `CC(=O)N[C@H]1[C@H]([C@H](O)[C@H](O)Cn2cc(-c3ccc(-c4ccccc4)cc3)nn2)OC(C(=O)O)=C[C@@H]1NC(=N)N`, the Activity (Mus musculus [2]) is reported as “Active”.
For `CCCCC(=O)N[C@H]1[C@H]([C@H](O)[C@H](O)Cc2ccc(-c3ccccc3)cc2)OC(C(=O)O)=C[C@@H]1O`, the Activity (Mus musculus [2]) was “Active”.
For `COC(=O)C1=C[C@H](O)[C@@H](NC(C)=O)[C@H]([C@H](O)[C@H](O)Cn2cc(-c3ccc(-c4ccccc4)cc3)nn2)O1`, the Activity [3] was “Non-Toxic”, the Activity (Mus musculus [2]) was 25 - 50% and the inhibition in vivo at 30 mg/kg (Mus musculus [4]) was 70 to 80%. The solubility ([5]; buffer) was 100 µg/mL (≈ 197 µM), the inhibition in vivo at 30 mg/kg (Mus musculus [6]) was 70 to 80% and the Activity [7] was “Non-Toxic”. The Activity [8] was “Non-Toxic”, the Activity [9] was “Non-Toxic” and the Activity [10] was “Non-Toxic”.
With `CCCCC(=O)NC[C@@H](O)[C@@H](O)[C@@H]1OC(C(=O)OC)=C[C@H](O)[C@H]1NC(C)=O` the Activity (Mus musculus [11]) was 25%, the Activity (Mus musculus [12]) was “inactive” and the Activity [13] was “Non-Toxic”. The Activity (Mus musculus [14]) was 25 - 50%, the Activity [15] was “Non-Toxic” and the inhibition in vivo at 30 mg/kg (Mus musculus [16]) was 70 to 80%. The Activity [17] was “Non-Toxic”, the solubility ([5]; water, read-out: solubility) was at least 1000 µg/mL and the inhibition in vivo at 30 mg/kg (Mus musculus [18]) was 90%. The Activity [19] was “Non-Toxic”, the Activity [20] was “Non-Toxic” and the Activity [21] was “Non-Toxic”. The Activity (Mus musculus [22]) was 50%, the Activity [23] was “Non-Toxic” and the Activity [24] was “Non-Toxic”. The Activity (Mus musculus [25]) was “inactive”, the Activity (Mus musculus [26]) was “inactive” and the Activity [27] was “Non-Toxic”. For the same compound, the Activity [28] was “Non-Toxic”.
With `CCCCC(=O)NC[C@@H](O)[C@@H](O)[C@@H]1OC(C(=O)O)=C[C@H](O)[C@H]1NC(C)=O` the Activity (Mus musculus [11]) was “Active” and the Activity (Mus musculus [14]) was “Active”.
With `COC(=O)C1=C[C@H](NC(=N)N)[C@@H](NC(C)=O)[C@H]([C@H](O)[C@H](O)Cn2cc(-c3ccc(-c4ccccc4)cc3)nn2)O1` the Activity (Mus musculus [12]) was “inactive”, the Activity [3] was “Non-Toxic” and the Activity (Mus musculus [2]) was 25 - 50%. For the same compound, the Activity [7] was “Non-Toxic”, the Activity (Mus musculus [22]) was 50% and the Activity [8] was “Non-Toxic”. For the same compound, the Activity [9] was “Non-Toxic”, the Activity (Mus musculus [25]) was “inactive” and the Activity [10] was “Non-Toxic”. For the same compound, the Activity (Mus musculus [26]) was “inactive”.
In the case of `CCCCC(=O)N[C@H]1[C@H]([C@H](O)[C@H](O)Cc2ccc(-c3ccccc3)cc2)OC(C(=O)OC)=C[C@@H]1O`, the Activity (Mus musculus [12]) is reported as “inactive”, the Activity [3] is reported as “Non-Toxic” and the Activity (Mus musculus [2]) is reported as 25 - 50%. The solubility ([5]; water, read-out: solubility) was at least 10000 µg/mL, the Activity [7] was “Non-Toxic” and the Activity (Mus musculus [22]) was 50%. For the same compound, the Activity [8] was “Non-Toxic”, the Activity [9] was “Non-Toxic” and the Activity (Mus musculus [25]) was “inactive”. The Activity [10] was “Non-Toxic” and the Activity (Mus musculus [26]) was “inactive”.
